# In paper PMC7255104, “Receptor Characterization and Functional Activity of Pyrokinins on the Hindgut in the Adult Mosquito, Aedes aegypti” (Frontiers in Physiology, 2020):
# Where a SMILES comes first, the peptide text is derived from it.
# What was measured:
# A. aegypti PK2-R = target: T1, A. aegypti PK2-R (Aedes aegypti, UniProt V9P4J1); assay: Heterologous functional receptor assay (aequorin bioluminescence), PK2-R; assay type: cell-based; details: for EC50: CHO-K1 cells transiently expressing PK2-R and aequorin, luminescence normalized to 50 μM ATP, two biological replicates, 4-8 technical replicates each, read-out: EC50, activation of A. aegypti PK2-R
# T1 sequence (V9P4J1 1-638): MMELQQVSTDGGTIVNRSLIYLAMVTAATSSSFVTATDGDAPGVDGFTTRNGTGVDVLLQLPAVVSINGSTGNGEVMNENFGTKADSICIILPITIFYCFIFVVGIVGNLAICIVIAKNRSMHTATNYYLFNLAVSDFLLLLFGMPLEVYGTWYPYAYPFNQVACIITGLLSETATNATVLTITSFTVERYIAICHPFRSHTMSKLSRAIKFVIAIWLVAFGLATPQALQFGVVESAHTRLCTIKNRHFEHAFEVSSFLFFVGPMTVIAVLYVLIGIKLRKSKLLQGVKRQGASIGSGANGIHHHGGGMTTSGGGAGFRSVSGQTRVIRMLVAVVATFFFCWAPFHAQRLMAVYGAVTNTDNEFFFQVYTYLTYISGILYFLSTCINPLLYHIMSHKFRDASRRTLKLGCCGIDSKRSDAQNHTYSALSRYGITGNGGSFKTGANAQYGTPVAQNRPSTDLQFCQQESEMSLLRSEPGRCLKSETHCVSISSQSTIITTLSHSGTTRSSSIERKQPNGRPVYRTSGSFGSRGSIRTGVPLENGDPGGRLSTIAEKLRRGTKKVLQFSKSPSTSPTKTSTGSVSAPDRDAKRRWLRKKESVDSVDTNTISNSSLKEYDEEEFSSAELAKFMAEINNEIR
# Excerpt: The complete open reading frame was amplified based on the partial ([Nene et al., 2007]) and complete sequences ([Choi et al., 2013]) reported earlier for the A. aegypti PK1-R (Genbank accession: EAT35008.1) and PK2-R (Genbank accession: KC155994.1). Forward 5′-[…]-3′ (PK1-R) or 5′-[…]-3′ (PK2-R) and reverse 5′-[…]-3′ (PK1-R) or 5′-[…]-3′ (PK2-R) primers were designed over the start and stop codons (underlined), respectively, and used to amplify the complete coding sequence using Q5 High-Fidelity DNA polymerase following manufacturer recommendations (New England Biolabs, Whitby, ON). […] The resulting products were cloned into pGEM-T Easy sequencing vector, and miniprep samples were sequenced to verify base accuracy. The receptor constructs were excised using standard restriction enzyme digestion and subcloned into the mammalian expression vector, pcDNA 3.1^+ (Life Technologies, Burlington, ON, Canada). Transfection quality plasmid DNA was purified from an overnight bacterial culture using the PureLink MidiPrep Kit (Invitrogen, Burlington, ON, Canada) following manufacturer guidelines.
# Chinese hamster ovary cells (CHO-K1) described previously ([Paluzzi et al., 2012]; [Gondalia et al., 2016]; [Wahedi and Paluzzi, 2018]) were grown in Dulbecco’s modified eagles medium: nutrient F12 (DMEM:F12) media containing 10% heat-inactivated fetal bovine serum (FBS; Wisent, St. Bruno, QC, Canada), 200 μg/mL geneticin, and antimycotic-antibiotic mixture as described previously ([Wahedi and Paluzzi, 2018]). […] Various concentrations of synthesized PK peptides and other peptides (purity > 90%; Genscript, Piscataway, NJ, United States) were prepared in BSA media and loaded in quadruplicate into white 96-well luminescence plates (Greiner Bio-One, Germany).
# Luminescence responses to A. aegypti CAPA-1 (GPTVGLFAFPRV-NH2), CAPA-2 (pQGLVPFPRV-NH2) and CAPA-PK1 (AGNSGANSGMWFGPRL-NH2) peptides, along with the R. prolixus PK2 orthologs, PK2a (NTVNFSPRL-NH2), and PK2b (SPPFAPRL-NH2) were examined. A list of peptides used in this study and sequence comparison to native A. aegypti pyrokinin peptides is found in Supplementary Table S1. Cells prepared for the functional assay were loaded into each well of the plate using an automated injector unit and luminescent response was measured with a Synergy 2 Multi-Mode Microplate Reader (BioTek, Winooski, VT, United States). Negative controls were carried out using BSA media alone whereas 50 μM ATP, which activates endogenously expressed purinoceptors ([Iredale and Hill, 1993]; [Michel et al., 1998]), was used as a positive control. Luminescence responses were normalized to ATP responses and analyzed in GraphPad Prism 7.02 (GraphPad Software, San Diego, CA, United States). EC50 values were determined using dose-response curves from multiple biological replicates.
# [1] = system: isolated ilea of female A. aegypti; assay: Ileal motility assay (video recordings); parameters: species or system Aedes aegypti; details: Figure 7, 1 μM, RhoprMIP-7 added together with 1 μM RhoprPK2b, mean of 17 preparations
# Experimental: Hindgut contraction assays were conducted on isolated […] of female A. aegypti. […] The isolated tissue was secured with minutien pins within a Sylgard-lined petri-dish. Given its high sequence similarity to endogenous A. aegypti PK2 peptides (Supplementary Table S1), we used the R. prolixus PK2b peptide ([Paluzzi and O'Donnell, 2012]), henceforth referred to as RhoprPK2b, for motility bioassays. Commercially synthesized peptides (Genscript, Piscataway, NJ, United States), […] ([…]) and RhoprPK2[…]), were used to examine myomodulatory activity. Serotonin (5-hydroxytryptamine, 5-HT; Sigma-Aldrich, Oakville, ON, Canada), previously shown to stimulate A. aegypti hindgut contractions ([Messer and Brown, 1995]), was used as a stimulatory control. Given the inhibitory properties of myoinhibitory peptides (having the consensus W(X6)W-NH2 carboxyl terminus) on insect hindgut motility ([Lange et al., 2012]), RhoprMIP-7 ([…]; Genscript, Piscataway, NJ, United States; [Paluzzi et al., 2015]) was used as an inhibitory control. […] Unlike the rectum, the mosquito ileum produces weaker contractions that we were unable to measure using an impedance converter as described above. […] The dissected gut was pinned in the midgut and rectum to allow the ileum to freely contract in saline and following treatments. Contractions were recorded for 2 min in saline that was used for baseline activity measurements, followed by three subsequent 2-min recordings, including: […] The RhoprPK2b was added along with the stimulatory or inhibitory compound (5-HT or RhoprMIP-7, respectively), to maintain its 1 μM concentration in the bath. […] To account for any potential changes in tissue contractile activity upon adding solutions to the bath, each of these variables were measured relative to baseline saline recordings of the same preparation as a ratio of change, where a value above or below one indicates an increase or a decrease, (respectively), in the rate, duration or length between each contraction in response to the treatment.
# [2] = system: rectal pad epithelia of female A. aegypti; assay: Scanning ion-selective electrode technique (SIET), Na+ flux; parameters: species or system Aedes aegypti
# Experimental: Female mosquitoes were anesthetized on ice for 3 min and dissected in Ca^2+-free A. aegypti saline, as described previously ([Paluzzi et al., 2014]), to limit spontaneous hindgut contractions during ion flux measurements. The isolated rectum was then transferred to a Petri dish with saline, pre-coated with poly-L-lysine ([Paluzzi et al., 2014]) to allow the tissue to adhere to the bottom of the dish.
# AedaeCAPA-PK1 or D. melanogaster Droso-leucokinin (NSVVLGKKQRFHSWG-NH2, Genscript, Piscataway, NJ, United States; provided by Prof. Dick Nässel, Stockholm University, Sweden) were solubilized in double distilled water as a 1 mM stock and then diluted in the above-mentioned Ca^2+-free A. aegypti saline to achieve a 1 μM final concentration. Control measurements were obtained by applying an equal volume of saline only, referred to as saline control treatments. […]
# SIET measurements were obtained through the Automated Scanning Electrode Technique (ASET) software (Science Wares, East Falmouth, MA, United States). […] Voltage gradients were measured as the microelectrode moved perpendicularly to the tissue surface between two points separated by a distance of 100 μm. […] Following background voltage readings, the ion-selective microelectrode tip was positioned at a distance of 2 μm from the rectal pad epithelia. […] Following measurements at the rectal pad sites, background voltage readings were again recorded at a distance of 3 mm away from the tissue.
# Calculation of ion flux used in this study has been described previously ([Paluzzi et al., 2014]). […] The change in flux upon treatment application was calculated by subtracting flux values obtained during saline measurements, in which a positive change indicates increased ion absorption, and a negative change represents a decrease in absorption.
compound,measurement,setting,value
CC(C)C[C@H](NC(=O)CNC(=O)[C@@H](NC(=O)[C@@H](NC(=O)[C@@H]1CCCN1C(=O)CN)[C@@H](C)O)C(C)C)C(=O)N[C@@H](Cc1ccccc1)C(=O)N[C@@H](C)C(=O)N[C@@H](Cc1ccccc1)C(=O)N1CCC[C@H]1C(=O)N[C@@H](CCCNC(=N)N)C(=O)N[C@H](C(N)=O)C(C)C [AedaeCAPA-1] (H-GPTVGLFAFPRV-NH2),activation of PK2-R relative to the highly potent pyrokinins,"A. aegypti PK2-R; CHO-K1 cells expressing PK2-R, very high concentrations",≤ 25%
CSCC[C@H](NC(=O)CNC(=O)[C@H](CO)NC(=O)[C@H](CC(N)=O)NC(=O)[C@H](C)NC(=O)CNC(=O)[C@H](CO)NC(=O)[C@H](CC(N)=O)NC(=O)CNC(=O)[C@H](C)N)C(=O)N[C@@H](Cc1c[nH]c2ccccc12)C(=O)N[C@@H](Cc1ccccc1)C(=O)NCC(=O)N1CCC[C@H]1C(=O)N[C@@H](CCCNC(=N)N)C(=O)N[C@@H](CC(C)C)C(N)=O [AedaeCAPA-PK1] (H-AGNSGANSGMWFGPRL-NH2),EC50,A. aegypti PK2-R,158 nM
CC(C)C[C@H](NC(=O)[C@H](CCCNC(=N)N)NC(=O)[C@@H]1CCCN1C(=O)[C@H](CO)NC(=O)[C@H](Cc1ccccc1)NC(=O)[C@H](CC(N)=O)NC(=O)[C@@H](NC(=O)[C@@H](NC(=O)[C@@H](N)CC(N)=O)[C@@H](C)O)C(C)C)C(N)=O [RhoprPK2a] (H-NTVNFSPRL-NH2),EC50,A. aegypti PK2-R,17.5 nM
CC(C)C[C@H](NC(=O)[C@H](CCCNC(=N)N)NC(=O)[C@@H]1CCCN1C(=O)[C@H](C)NC(=O)[C@H](Cc1ccccc1)NC(=O)[C@@H]1CCCN1C(=O)[C@@H]1CCCN1C(=O)[C@@H](N)CO)C(N)=O [RhoprPK2b] (H-SPPFAPRL-NH2),EC50,A. aegypti PK2-R,8.54 nM
AWNSLHGGW-NH2 [RhoprMIP-7],duration of each ileal contraction relative to baseline,[1],about 1.9 fold
same,ileal contraction frequency relative to baseline,[1],0.38 fold
same,relaxation duration (length of time between ileal contractions) relative to baseline,[1],3.9 fold
"NSVVLGKKQRFHSWG-NH2 [Droso-leucokinin, D. melanogaster kinin analog used in Na+ transport measurements]",decrease in Na+ absorption across rectal pad epithelia relative to initial transport in saline,"[2]; 1 μM in Ca2+-free saline, absorptive female recta only, mean ± SEM of 10 to 14 preparations, SEM",201.6 ± 39.0 pmol cm^–2 s^–1
same,fold decrease in Na+ absorption compared to saline control,"[2]; 1 μM, female rectal pad epithelia",four-fold decrease
same,significance of change in Na+ transport versus saline alone,"[2]; 1 μM, one-way ANOVA and Tukey's post hoc test",significant
